Source: patent US10421740B2, “Pesticidally active heterocyclic derivatives with sulphur containing substituents” (SYNGENTA PARTICIPATIONS AG, priority 2016, dated 2019)

Key:
Assay type in all cases: in vivo
[1] = test system: Bemisia tabaci (Cotton White Fly); test: Activity against Bemisia tabaci (cotton white fly): feeding/contact activity; details: foliar, 144 h, application rate 200 ppm, cotton leaf discs, adult white flies, 6 days after incubation
Experimental: Example B1: Activity Against Bemisia tabaci (Cotton White Fly): Feeding/Contact Activity
Cotton leaf discs were placed on agar in 24-well microtiter plates and sprayed with aqueous test solutions prepared from 10'000 ppm DMSO stock solutions. After drying the leaf discs were infested with adult white flies. The samples were checked for mortality 6 days after incubation.

[2] = test system: Diabrotica balteata (Corn Root Worm); test: Activity against Diabrotica balteata (corn root worm); details: 96 h, application rate 200 ppm, maize sprouts, L2 larvae, 4 days after infestation, read-out: effect in at least one of the two categories (mortality or growth inhibition)
Experimental: Example B2: Activity Against Diabrotica balteata (Corn Root Worm)
Maize sprouts placed onto an agar layer in 24-well microtiter plates were treated with aqueous test solutions prepared from 10'000 ppm DMSO stock solutions by spraying. After drying, the plates were infested with L2 larvae (6 to 10 per well). The samples were assessed for mortality and growth inhibition in comparison to untreated samples 4 days after infestation.

[3] = test system: Myzus persicae (Green Peach Aphid); test: Activity against Myzus persicae (green peach aphid): feeding/contact activity; details: foliar, 144 h, application rate 200 ppm, sunflower leaf discs, aphid population of mixed ages, 6 days after infestation
Experimental: Example B3: Activity Against Myzus persicae (Green Peach Aphid): Feeding/Contact Activity
Sunflower leaf discs were placed onto agar in a 24-well microtiter plate and sprayed with aqueous test solutions prepared from 10'000 ppm DMSO stock solutions. After drying, the leaf discs were infested with an aphid population of mixed ages. The samples were assessed for mortality 6 days after infestation.

[4] = test system: Myzus persicae (Green Peach Aphid); test: Activity against Myzus persicae (green peach aphid): systemic activity; details: 144 h, test rate 24 ppm, roots of pea seedlings in test solution, 6 days
Experimental: Example B4: Activity Against Myzus persicae (Green Peach Aphid): Systemic Activity
Roots of pea seedlings infested with an aphid population of mixed ages were placed directly into aqueous test solutions prepared from 10'000 DMSO stock solutions. The samples were assessed for mortality 6 days after placing seedlings into test solutions.

[5] = test system: Plutella xylostella (Diamond Back Moth); test: Activity against Plutella xylostella (diamond back moth); details: 120 h, application rate 200 ppm, artificial diet, L2 larvae, 5 days after infestation, read-out: effect in at least one of the two categories (mortality or growth inhibition)
Experimental: Example B5: Activity Against Plutella xylostella (Diamond Back Moth)
24-well microtiter plates with artificial diet were treated with aqueous test solutions prepared from 10'000 ppm DMSO stock solutions by pipetting. After drying, the plates were infested with L2 larvae (10 to 15 per well). The samples were assessed for mortality and growth inhibition in comparison to untreated samples 5 days after infestation.

[6] = test system: Spodoptera littoralis (Egyptian Cotton Leaf Worm); test: Activity against Spodoptera littoralis (Egyptian cotton leaf worm), uptake via lettuce roots; details: 144 h, test rate 12.5 ppm, lettuce grown on treated agar, eggs, 6 days after infestation, read-out: effect in at least one of the three categories (mortality, anti-feeding, or growth inhibition)
Text: Example B6: Activity Against Spodoptera littoralis (Egyptian Cotton Leaf Worm)
Test compounds were applied by pipette from 10'000 ppm DMSO stock solutions into 24-well plates and mixed with agar. Lettuce seeds were placed onto the agar and the multi well plate was closed by another plate which contained also agar. After 7 days the compound was absorbed by the roots and the lettuce grew into the lid plate. The lettuce leaves were then cut off into the lid plate. Spodoptera eggs were pipetted through a plastic stencil onto a humid gel blotting paper and the lid plate was closed with it. The samples were assessed for mortality, anti-feedant effect and growth inhibition in comparison to untreated samples 6 days after infestation.

[7] = test system: Spodoptera littoralis (Egyptian Cotton Leaf Worm); test: Activity against Spodoptera littoralis (Egyptian cotton leaf worm), cotton leaf disc spray; details: foliar, 72 h, application rate 200 ppm, cotton leaf discs, L1 larvae, 3 days after infestation
Experimental: Example B8: Activity Against Spodoptera littoralis (Egyptian Cotton Leaf Worm)
Cotton leaf discs were placed onto agar in 24-well microtiter plates and sprayed with aqueous test solutions prepared from 10'000 ppm DMSO stock solutions. After drying the leaf discs were infested with five L1 larvae. The samples were assessed for mortality, anti-feeding effect, and growth inhibition in comparison to untreated samples 3 days after infestation. Control of Spodoptera littoralis by a test sample is given when at least one of the categories mortality, anti-feedant effect, and growth inhibition is higher than the untreated sample.

[8] = test system: Anopheles stephensi (Indian Malaria Mosquito); test: Activity against Anopheles stephensi (Indian malaria mosquito); details: 200 ppm in ethanol, dry deposit; adult females; after 48 h and/or 24 h
Experimental: Example B10: Activity Against Anopheles stephensi (Indian Malaria Mosquito)
Test solutions, at an application rate of 200 ppm in ethanol, were applied to 12 well tissue culture plates. Once the deposits were dry, five, two to five day old adult female Anopheles stephensi were added to each well, and sustained with a 10% sucrose solution in a cotton wool plug. Assessment of knockdown was made one hour after introduction, and mortality was assessed at 24 and 48 hours after introduction.

[9] = test system: Euschistus heros (Neotropical Brown Stink Bug); test: Activity against Euschistus heros (neotropical brown stink bug); details: 120 h, application rate 200 ppm, soybean leaves, N2 nymphs, 5 days after infestation, read-out: effect in at least one of the two categories (mortality or growth inhibition)
Experimental: Example B9: Activity Against Euschistus heros (Neotropical Brown Stink Bug)
Soybean leaves on agar in 24-well microtiter plates were sprayed with aqueous test solutions prepared from 10'000 ppm DMSO stock solutions. After drying the leaves were infested with N2 nymphs. The samples were assessed for mortality and growth inhibition in comparison to untreated samples 5 days after infestation.

## CCS(=O)(=O)c1cc2c(cc1-c1nnc(-c3cc(C(F)(F)F)ccn3)n1C)nc(C(F)(F)F)n2C [Compound A2, 6-ethylsulfonyl-1-methyl-5-[4-methyl-5-[4-(trifluoromethyl)-2-pyridyl]-1,2,4-triazol-3-yl]-2-(trifluoromethyl)benzimidazole]
[1]
  mortality at 200 ppm: ≥ 80%
[2]
  percent effect (mortality or growth inhibition) at 200 ppm: ≥ 80%
[3]
  mortality at 200 ppm: ≥ 80%
[4]
  mortality at 24 ppm: ≥ 80%
[5]
  percent control (mortality or growth inhibition) at 200 ppm: ≥ 80%
[6]
  percent with effect (mortality, anti-feeding or growth inhibition) at 12.5 ppm: ≥ 80%
[7]
  percent control (mortality, anti-feedant effect or growth inhibition) at 200 ppm: ≥ 80%
[8]
  control of Anopheles stephensi: at least 80%

## CCS(=O)(=O)c1cc2sc(C(F)(F)F)nc2cc1-c1nnc(-c2cc(C(F)(F)F)ccn2)n1C [Compound A8, 6-ethylsulfonyl-5-[4-methyl-5-[4-(trifluoromethyl)-2-pyridyl]-1,2,4-triazol-3-yl]-2-(trifluoromethyl)-1,3-benzothiazole]
[1]
  mortality at 200 ppm: ≥ 80%
[2]
  percent effect (mortality or growth inhibition) at 200 ppm: ≥ 80%
[3]
  mortality at 200 ppm: ≥ 80%
[5]
  percent control (mortality or growth inhibition) at 200 ppm: ≥ 80%
[6]
  percent with effect (mortality, anti-feeding or growth inhibition) at 12.5 ppm: ≥ 80%
[7]
  percent control (mortality, anti-feedant effect or growth inhibition) at 200 ppm: ≥ 80%
[9]
  effect (mortality or growth inhibition) at 200 ppm: ≥ 80%
